Experimental data taken from PubChem BioAssay (NCI).
Where “and” joins values, the source holds several entries; their conditions need not be identical. Identical values can stand only once.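 The concentration for 50% growth inhibition is given as GI50. At the TGI there is no net growth.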

Experiments:
Assay in all cases: inhibition of tumour cell growth, NCI panel, 384-well format
[1] = tested on: 786-0 renal
[2] = tested on: A498 renal
[3] = tested on: A549 NSCLC
[4] = tested on: ACHN renal
[5] = tested on: BT-549 breast
[6] = tested on: CAKI-1 renal
[7] = tested on: CCRF-CEM leukemia
[8] = tested on: COLO 205 colon
[9] = tested on: DU-145 prostate
[10] = tested on: EKVX NSCLC
[11] = tested on: HCC-2998 colon
[12] = tested on: HCT-116 colon
[13] = tested on: HCT-15 colon
[14] = tested on: HL-60(TB) leukemia
[15] = tested on: HOP-62 NSCLC
[16] = tested on: HOP-92 NSCLC
[17] = tested on: HS 578T breast
[18] = tested on: HT29 colon
[19] = tested on: IGROV1 ovarian
[20] = tested on: K-562 leukemia
[21] = tested on: KM12 colon
[22] = tested on: LOX IMVI melanoma
[23] = tested on: M14 melanoma
[24] = tested on: MALME-3M melanoma
[25] = tested on: MCF7 breast
[26] = tested on: MDA-MB-231 breast
[27] = tested on: MDA-MB-435 melanoma
[28] = tested on: MDA-MB-468 breast
[29] = tested on: MOLT-4 leukemia
[30] = tested on: NCI-H226 lung
[31] = tested on: NCI-H23 lung
[32] = tested on: NCI-H322M lung
[33] = tested on: NCI-H460 NSCLC
[34] = tested on: NCI/ADR-RES ovarian
[35] = tested on: OVCAR-3 ovarian
[36] = tested on: OVCAR-4 ovarian
[37] = tested on: OVCAR-5 ovarian
[38] = tested on: OVCAR-8 ovarian
[39] = tested on: PC-3 prostate
[40] = tested on: RPMI-8226 leukemia
[41] = tested on: RXF 393 renal
[42] = tested on: SF-268 CNS
[43] = tested on: SF-295 CNS
[44] = tested on: SF-539 CNS
[45] = tested on: SK-MEL-2 melanoma
[46] = tested on: SK-MEL-28 melanoma
[47] = tested on: SK-MEL-5 melanoma
[48] = tested on: SK-OV-3 ovarian
[49] = tested on: SN12C renal
[50] = tested on: SNB-19 CNS
[51] = tested on: SNB-75 CNS
[52] = tested on: SW-620 colon
[53] = tested on: T-47D breast
[54] = tested on: TK-10 renal
[55] = tested on: U251 glioblastoma
[56] = tested on: UACC-62 melanoma
[57] = tested on: UO-31 renal

CCc1nc(C(N)=O)c(Nc2ccc(N3CCC(N4CCN(C)CC4)CC3)c(OC)c2)nc1NC1CCOCC1
GI50 [1]: 1030 nM and 313 nM
TGI [1]: 5870 nM and 1580 nM
GI50 [2]: 619 nM and 283 nM
GI50 [3]: 533 nM and 259 nM
GI50 [4]: 593 nM and 391 nM
TGI [4]: > 100000 nM
GI50 [5]: 551 nM and 339 nM
TGI [5]: 2580 nM and 1730 nM
GI50 [6]: 247 nM and 155 nM
TGI [6]: 556 nM
GI50 [7]: 1730 nM and 828 nM
TGI [7]: 3390 nM and 2100 nM
GI50 [8]: 495 nM and 303 nM
TGI [8]: 5230 nM and 1100 nM
GI50 [9]: 491 nM and 322 nM
GI50 [10]: 463 nM
TGI [10]: 99300 nM
GI50 [11]: 180 nM and 253 nM
TGI [11]: 5550 nM and 3080 nM
GI50 [12]: 494 nM and 294 nM
TGI [12]: 5950 nM and 3070 nM
GI50 [13]: 458 nM and 318 nM
TGI [13]: > 100000 nM
GI50 [14]: 357 nM and 185 nM
TGI [14]: 1030 nM and 403 nM
GI50 [15]: 1230 nM and 392 nM
GI50 [16]: 114 nM and 36.3 nM
TGI [16]: 608 nM and 213 nM
GI50 [17]: 1180 nM
TGI [17]: 3540 nM
GI50 [18]: 282 nM and 174 nM
GI50 [19]: 335 nM and 179 nM
TGI [19]: 1620 nM and 484 nM
GI50 [20]: 1250 nM
TGI [20]: 3940 nM
GI50 [21]: 35.3 nM and 16.5 nM
GI50 [22]: 775 nM and 371 nM
GI50 [23]: 402 nM and 239 nM
TGI [23]: 1790 nM and 1160 nM
GI50 [24]: 302 nM and 155 nM
TGI [24]: 1700 nM and 1060 nM
GI50 [25]: 383 nM and 247 nM
GI50 [26]: 474 nM and 370 nM
TGI [26]: 2570 nM and 1760 nM
GI50 [27]: 704 nM and 329 nM
TGI [27]: > 100000 nM
GI50 [28]: 2150 nM
GI50 [29]: 371 nM and 191 nM
TGI [29]: 1330 nM and 375 nM
GI50 [30]: 584 nM and 593 nM
TGI [30]: 4610 nM
GI50 [31]: 300 nM and 123 nM
TGI [31]: 5540 nM and 617 nM
GI50 [32]: 674 nM and 246 nM
GI50 [33]: 465 nM and 292 nM
GI50 [34]: 3260 nM and 2240 nM
TGI [34]: > 100000 nM
GI50 [35]: 1170 nM and 584 nM
TGI [35]: > 25600 nM and 4320 nM
GI50 [36]: > 100000 nM
TGI [36]: > 100000 nM
GI50 [37]: 503 nM and 216 nM
GI50 [38]: 5100 nM and 758 nM
TGI [38]: > 100000 nM
GI50 [39]: 385 nM and 672 nM
TGI [39]: > 100000 nM
GI50 [40]: 975 nM and 255 nM
TGI [40]: 4200 nM and 984 nM
GI50 [41]: 1170 nM and 208 nM
GI50 [42]: 2190 nM and 1360 nM
TGI [42]: > 26500 nM
GI50 [43]: 4620 nM and 1040 nM
TGI [43]: > 20900 nM and 3070 nM
GI50 [44]: 1910 nM and 638 nM
TGI [44]: 6720 nM and 2320 nM
GI50 [45]: 242 nM
TGI [45]: 1300 nM
GI50 [46]: 227 nM
TGI [46]: 986 nM
GI50 [47]: 661 nM and 406 nM
TGI [47]: > 100000 nM
GI50 [48]: 339 nM and 160 nM
GI50 [49]: 168 nM and 67.1 nM
TGI [49]: > 100000 nM
GI50 [50]: 3390 nM and 1080 nM
TGI [50]: > 100000 nM
GI50 [51]: 1360 nM
TGI [51]: 4160 nM
GI50 [52]: 587 nM and 444 nM
TGI [52]: 2070 nM and 1580 nM
TGI [53]: > 100000 nM
GI50 [54]: 1680 nM and 818 nM
GI50 [55]: 6480 nM and 834 nM
GI50 [56]: 396 nM and 214 nM
TGI [56]: 1320 nM
GI50 [57]: 457 nM and 231 nM
